Test results from patent publication US20160100579A1, “NEMATICIDAL N-(2-SUBSTITUTED 2-PHENYLETHYL)CARBOXAMIDES AND N-(2-SUBSTITUTED 2-PHENYLETHYL)-THIOCARBOXAMIDES” (priority 2013, published 2016).

Columns and labels:
[1] = Measurement of log P values by HPLC on reversed phase columns (EEC directive 79/831 Annex V.A8; methods [a] pH 2.3, [b] pH 2.7, [c] pH 7.8); type: physicochemical
Method: Measurement of log P-values:
Measurement of log P values was performed according EEC directive 79/831 Annex V.A8 by HPLC (High Performance Liquid Chromatography) on reversed phase columns with the following methods:
^[a] Measurement was done at pH 2.3 with 0.1% phosphoric acid and acetonitrile as eluent with a linear gradient from 10% acetonitrile to 95% acetonitrile.
^[b] measurement of LC-MS was done at pH 2.7 with 0.1% formic acid in water and with acetonitrile (contains 0.1% formic acid) as eluent with a linear gradient from 10% acetonitrile to 95% acetonitrile.
^[c] Measurement with LC-MS was done at pH 7.8 with 0.001 molar ammonium hydrogen carbonate solution in water as eluent with a linear gradient from 10% acetonitrile to 95% acetonitrile.
Calibration was done with not branched alkan2-ones (with 3 to 16 carbon atoms) with known log P-values (measurement of log P values using retention times with linear interpolation between successive alkanones).. lambda-maX-values were determined using UV-spectra from 200 nm to 400 nm and the peak values of the chromatographic signals.

Haemonchus contortus = Haemonchus contortus - Test (HAEMCO); type: in vivo; details: after 5 days, 100% = all larvae killed
Method: Haemonchus contortus—Test (HAEMCO)
Solvent: dimethyl sulfoxide
To produce a suitable preparation of active compound, 10 mg of active compound are dissolved in 0.5 ml solvent, and the concentrate is diluted with “Ringer's solution” to the desired concentration.
Approximately 40 larvae of the red stomach worm (Haemonchus contortus) are transferred into a test tube containing compound solution.
After 5 days percentage of larval mortality is recorded. 100% efficacy means all larvae are killed, 0% efficacy means no larvae are killed.

Meloidogyne incognita = Meloidogyne incognita - test (MELGIN); type: in vivo; details: 20 ppm; salad seedlings in sand; after 14 days; 100% = no galls found
Method: Meloidogyne incognita—test (MELGIN)
Solvent: 125.0 parts by weight of acetone
To produce a suitable preparation of active compound, 1 part by weight of active compound is mixed with the stated amount of solvent, and the concentrate is diluted with water to the desired concentration.
Vessels are filled with sand, a solution of the active ingredient, a suspension containing eggs and larvae of the southern root-knot nematode (Meloidogyne incognita) and salad seeds. The salad seeds germinate and the seedlings grow. Galls develop in the roots.
After 14 days the nematicidal activity is determined on the basis of the percentage of gall formation. 100% means that no galls were found; 0% means the number of galls found on the roots of the treated plants was equal to that in untreated control plants.

[2] = method [a]: HPLC, pH 2.3, 0.1% phosphoric acid / acetonitrile
[3] = method [b]: LC-MS, pH 2.7, 0.1% formic acid in water / acetonitrile
[4] = method [c]: LC-MS, pH 7.8, 0.001 molar ammonium hydrogen carbonate / acetonitrile
[5] = method [b]: LC-MS at pH 2.7, 0.1% formic acid in water / acetonitrile
[6] = method [c]: LC-MS at pH 7.8, 0.001 molar ammonium hydrogen carbonate in water / acetonitrile

Row | Compound | log P [1, 5] | log P [1, 6] | other results
1 | C#CCOC(CNC(=O)c1sccc1C)c1ccc(Cl)cc1 (stereo not drawn) [Compound 1] | – | – | logP [1, 2]: 3.18^[a]; activity (efficacy: larval mortality) (Haemonchus contortus; 100 ppm): 80%
2 | COC(CNC(=O)c1cn(C)nc1C(F)F)c1cc(Cl)cc(Cl)c1 (stereo not drawn) [Compound 25] | – | – | nematicidal activity (percentage of gall formation) (Meloidogyne incognita): 90%
3 | COC(c1ccc(Cl)cc1Cl)C(C)NC(=O)c1cccnc1Cl (stereo not drawn) [Compound 34] | – | – | activity (efficacy: larval mortality) (Haemonchus contortus; 100 ppm): 90%
4 | COC(c1ccc(Cl)cc1Cl)C(C)NC(=O)c1sccc1C (stereo not drawn) [Compound 58] | – | – | logP [1, 3]: 4.05^[b]; logP [1, 4]: 4.02^[c];; activity (efficacy: larval mortality) (Haemonchus contortus; 100 ppm): 80%
5 | COC(c1ccc(Cl)cc1)C(C)NC(=O)c1ccoc1C (stereo not drawn) [Compound 59] | – | – | logP [1, 3]: 3.21^[b]; activity (efficacy: larval mortality) (Haemonchus contortus; 100 ppm): 90%
6 | COC(c1ccc(Cl)cc1)C(C)NC(=O)c1ccsc1Br (stereo not drawn) [Compound 63] | – | – | logP [1, 3]: 3.68^[b]; activity (efficacy: larval mortality) (Haemonchus contortus; 100 ppm): 100%
7 | COC(c1ccc(Cl)cc1)C(C)NC(=O)c1sccc1Cl (stereo not drawn) [Compound 66] | – | – | logP [1, 3]: 3.83^[b]; logP [1, 4]: 3.83^[c];; activity (efficacy: larval mortality) (Haemonchus contortus; 20 ppm): 90%
8 | COC(CNC(=O)c1ccsc1Cl)c1ccc(Cl)cc1 (stereo not drawn) [Compound 70] | – | – | logP [1, 3]: 3.15^[b]; logP [1, 4]: 3.13^[c];; activity (efficacy: larval mortality) (Haemonchus contortus; 100 ppm): 100%
9 | COC(CNC(=O)c1ccoc1I)c1ccc(Cl)cc1 (stereo not drawn) [Compound 71] | – | – | logP [1, 3]: 2.92^[b]; logP [1, 4]: 2.90^[c];; activity (efficacy: larval mortality) (Haemonchus contortus; 100 ppm): 90%
10 | COC(c1ccc(Cl)cc1Cl)C1(NC(=O)c2cccnc2Cl)CC1 (stereo not drawn) [Compound 98] | – | – | logP [1, 3]: 3.00^[b]; activity (efficacy: larval mortality) (Haemonchus contortus; 20 ppm): 80%
11 | COC(c1ccc(Cl)cc1Cl)C1(NC(=O)c2cccnc2C(F)(F)F)CC1 (stereo not drawn) [Compound 100] | – | – | logP [1, 3]: 3.37^[b]; nematicidal activity (percentage of gall formation) (Meloidogyne incognita): 90%
12 | COC(CNC(=O)c1cccnc1C(F)(F)F)c1ccc(Cl)cc1Cl (stereo not drawn) [Compound 104] | – | – | logP [1, 3]: 3.11^[b]; nematicidal activity (percentage of gall formation) (Meloidogyne incognita): 90%
13 | CCOC(c1ccc(Cl)cc1Cl)C(C)NC(=O)c1cccnc1C(F)F (stereo not drawn) [Compound 105] | – | – | logP [1, 3]: 3.57^[b]; nematicidal activity (percentage of gall formation) (Meloidogyne incognita): 90%
14 | CCOC(c1ccc(Cl)cc1Cl)C(C)NC(=O)c1cccnc1Cl (stereo not drawn) [Compound 106] | – | – | logP [1, 3]: 3.59^[b]; nematicidal activity (percentage of gall formation) (Meloidogyne incognita): 90%
15 | COC(CNC(=O)c1nccnc1C(F)(F)F)c1cc(Cl)cc(Cl)c1 (stereo not drawn) [Compound 120] | 3.42^[b] | – | activity (efficacy: larval mortality) (Haemonchus contortus; 20 ppm): 80%
16 | COC(c1ccc(Cl)cc1Cl)C(C)NC(=O)c1ccnn1C(F)F (stereo not drawn) [Compound 123] | 3.09^[b] | – | activity (efficacy: larval mortality) (Haemonchus contortus; 20 ppm): 100%
17 | COC(c1ccc(Cl)cc1)C(C)NC(=O)c1ccccc1C (stereo not drawn) [Compound 129] | 3.30^[b] | 3.20^[c]; | activity (efficacy: larval mortality) (Haemonchus contortus; 20 ppm): 80%
18 | COC(c1ccc(Cl)cc1)C(C)NC(=O)c1ccccc1Br (stereo not drawn) [Compound 131] | 3.29^[b] | 3.30^[c]; | activity (efficacy: larval mortality) (Haemonchus contortus; 20 ppm): 90%
19 | COC(c1ccc(Cl)cc1)C(C)NC(=O)c1ccccc1C(F)F (stereo not drawn) [Compound 136] | 3.46^[b] | 3.42^[c]; | activity (efficacy: larval mortality) (Haemonchus contortus; 20 ppm): 80%

Row | Compound | log P [1, 5] | log P [1, 6] | other results
20 | COC(c1ccc(Cl)cc1Cl)C(C)N(C(=O)C1=C(C)OCCS1)C1CC1 (stereo not drawn) [Compound 172] | 4.30^[b] | – | –
21 | COC(c1ccc(Cl)cc1Cl)C(C)N(C(=O)c1cccnc1C(F)(F)F)C1CC1 (stereo not drawn) [Compound 173] | 4.44^[b] | – | –
22 | COC(c1ccc(Cl)cc1Cl)C(C)N(C(=O)c1nccnc1C(F)(F)F)C1CC1 (stereo not drawn) [Compound 174] | 4.69^[b] | – | –
23 | COC(c1ccc(Cl)cc1Cl)C(C)(C)N(C)C(=O)c1ccccc1C(F)(F)F (stereo not drawn) [Compound 182] | 5.42^[b] | 5.34^[c]; | –
24 | COC(c1ccc(F)cc1)C(C)NC(=O)c1ccccc1F (stereo not drawn) [Compound 183] | 3.04^[b] | 3.02^[c]; | –
25 | COC(c1ccc(F)cc1)C(C)NC(=O)c1cccnc1Cl (stereo not drawn) [Compound 184] | 2.25^[b] | 2.23^[c]; | –
26 | COC(c1ccc(F)cc1)C(C)NC(=O)c1c(F)cccc1F (stereo not drawn) [Compound 185] | 2.80^[b] | 2.76^[c]; | –
27 | COC(c1ccc(F)cc1)C(C)NC(=O)c1ccccc1Br (stereo not drawn) [Compound 186] | 2.99^[b] | 2.95^[c]; | –
28 | COC(c1ccc(F)cc1)C(C)NC(=O)c1ccccc1C (stereo not drawn) [Compound 188] | 2.91^[b] | 2.86^[c]; | –
29 | COC(c1ccc(F)cc1)C(C)NC(=O)c1c(F)cccc1C(F)(F)F (stereo not drawn) [Compound 189] | 3.24^[b] | 3.19^[c]; | –
30 | COC(c1ccc(F)cc1)C(C)NC(=O)c1ccccc1C(F)(F)F (stereo not drawn) [Compound 190] | – | 3.16^[c] | –
31 | CCOC(c1ccc(Cl)cc1Cl)C(C)NC(=O)c1c(F)cccc1C(F)(F)F (stereo not drawn) [Compound 193] | 4.55^[b] | 4.53^[c]; | –
32 | CCOC(c1ccc(Cl)cc1Cl)C(C)NC(=O)c1ccccc1F (stereo not drawn) [Compound 195] | 4.66^[b] | 4.65^[c]; | –
33 | CCOC(c1ccc(Cl)cc1Cl)C(C)NC(=O)c1c(F)cccc1F (stereo not drawn) [Compound 196] | 4.14^[b] | 4.13^[c]; | –
34 | CCOC(c1ccc(Cl)cc1Cl)C(C)NC(=O)c1ccccc1I (stereo not drawn) [Compound 197] | 4.51^[b] | 4.56^[c]; | –
35 | CCOC(c1ccc(Cl)cc1Cl)C(C)NC(=O)c1ccccc1C (stereo not drawn) [Compound 198] | 4.35^[b] | 4.33^[c]; | –
36 | CCOC(c1ccc(Cl)cc1Cl)C(C)NC(=O)c1ccccc1C(F)F (stereo not drawn) [Compound 199] | 4.45^[b] | 4.40^[c]; | –
37 | CCOC(c1ccc(Cl)cc1Cl)C(C)NC(=O)c1ccccc1Br (stereo not drawn) [Compound 200] | 4.43^[b] | 4.39^[c]; | –
38 | CCOC(c1ccc(Cl)cc1Cl)C(C)NC(=O)c1ccccc1Cl (stereo not drawn) [Compound 201] | 4.35^[b] | 4.39^[c]; | –

Row | Compound | log P [1, 5] | log P [1, 6] | other results
39 | CCOC(c1ccc(Cl)cc1Cl)C(C)NC(=O)c1sc(C)nc1C(F)(F)F (stereo not drawn) [Compound 204] | 4.37^[b] | 4.42^[c]; | –
40 | CCOC(c1ccc(Cl)cc1Cl)C(C)NC(=O)c1cccnc1 (stereo not drawn) [Compound 206] | 2.89^[b] | 3.03^[c]; | –
41 | COC(c1ccccc1Cl)C(C)NC(=O)c1cccnc1 (stereo not drawn) [Compound 207] | 1.94^[b] | 2.09^[c]; | –
42 | COC(c1ccc(Cl)cc1Cl)C1(NC(=O)c2ccccc2[N+](=O)[O-])CC1 (stereo not drawn) [Compound 211] | 3.33^[b] | 3.26^[c]; | –
43 | COC(c1ccccc1Cl)C(C)NC(=O)c1sc(C)nc1C(F)(F)F (stereo not drawn) [Compound 212] | 3.34^[b] | 3.31^[c]; | –
44 | CCOC(c1ccc(Cl)cc1Cl)C(C)NC(=O)c1nccnc1Cl (stereo not drawn) [Compound 214] | 3.89^[b] | 3.85^[c]; | –
45 | C#CCOC(c1ccc(Cl)c(Cl)c1)C(C)(C)NC(=O)c1sccc1C (stereo not drawn) [compound 3] | – | – | logP [1, 2]: 4.58^[a]
46 | C#CCOC(c1ccc(Cl)cc1)C(C)(C)NC(=O)c1sccc1C (stereo not drawn) [compound 4] | – | – | logP [1, 2]: 4.22^[a]
47 | Cc1ccc(COC(CNC(=O)c2sccc2C)c2ccc(Cl)cc2)cc1 (stereo not drawn) [compound 5] | – | – | logP [1, 2]: 4.62^[a]
48 | Cc1ccsc1C(=O)NCC(OCC(C)C)c1ccc(Cl)cc1 (stereo not drawn) [compound 7] | – | – | logP [1, 2]: 4.49^[a]
49 | COC(c1ccc(Cl)cc1Cl)C(C)NC(=O)c1c(C)nn(C)c1F (stereo not drawn) [compound 13] | – | – | logP [1, 3]: 3.13^[b]
50 | COC(c1ccc(Cl)cc1Cl)C(C)NC(=O)c1c(C(F)F)nn(C)c1F (stereo not drawn) [compound 14] | – | – | logP [1, 3]: 3.65^[b]
51 | COC(c1ccc(Cl)cc1Cl)C(C)NC(=O)c1cn(C)nc1C(F)F (stereo not drawn) [compound 17] | – | – | logP [1, 3]: 3.25^[b]
52 | COC(c1ccc(Cl)cc1Cl)C(C)NC(=O)c1c(F)c(C)nn1C(F)F (stereo not drawn) [compound 114] | – | – | logP [1, 3]: 4.57^[b]
53 | COC(c1ccc(Cl)cc1Cl)C(C)NC(=O)c1cc(C)nn1C(F)F (stereo not drawn) [compound 115] | – | – | logP [1, 3]: 3.73^[b]
54 | COC(c1ccc(Cl)cc1Cl)C1(NC(=O)c2ccnn2C(F)F)CC1 (stereo not drawn) [compound 121] | 3.46^[b] | – | –
55 | COC(c1ccc(Cl)cc1Cl)C1(NC(=O)c2cc([N+](=O)[O-])nn2C(F)F)CC1 (stereo not drawn) [compound 122] | 3.94^[b] | – | –
56 | COC(c1ccc(Cl)cc1Cl)C(C)NC(=O)c1cc(C)nn1C (stereo not drawn) [compound 124] | 3.08^[b] | – | –
57 | COC(c1ccc(Cl)cc1Cl)C1(NC(=O)c2cc(C)nn2C)CC1 (stereo not drawn) [compound 125] | 3.05^[b] | – | –
